PubChem BioAssay AID280 (DTP/NCI, 2004)
Values joined by “and” are separate entries in the source; they are usually repeats but may differ in a detail not shown here. Equal values may be shown once. Toxic doses and inconclusive results are not listed.

Tested on: nude mice, LOX melanoma ip, survival T/C
Experiment: NCI In Vivo Anticancer Drug Screen. Data for tumor model Human Amelanotic Melanoma (LOX) (intraperitoneal) in NU/NU BALB/C (nude) mice
Settings: endpoint: median survival time, higher = longer survival
Protocol: The antitumor activity of compounds was measured in mice bearing transplantable tumors. Survival or tumor size were measured and the results are expressed as the measurement made in the treated group (T) divided by the measurement made in the vehicle treated control group (C). The tumor model used in this assay is Human Amelanotic Melanoma (LOX) (intraperitoneal) in NU/NU BALB/C (nude) mice

[1] = dose: 9.38 mg/kg/injection, schedule: Q04DX003 (ip), vehicle: Klucel (hydroxypropylcellulose) (HPC)
[2] = dose: 37.5 mg/kg/injection, schedule: Q04DX003 (ip), vehicle: Klucel (hydroxypropylcellulose) (HPC)
[3] = dose: 75.0 mg/kg/injection, schedule: Q04DX003 (ip), vehicle: Klucel (hydroxypropylcellulose) (HPC)
[4] = dose: 150.0 mg/kg/injection, schedule: Q04DX003 (ip), vehicle: saline with Tween-80
[5] = dose: 25.0 mg/kg/injection, schedule: Q04DX003 (ip), vehicle: saline with Tween-80
[6] = dose: 50.0 mg/kg/injection, schedule: Q04DX003 (ip), vehicle: saline with Tween-80
[7] = dose: 200.0 mg/kg/injection, schedule: Q04DX003 (ip), vehicle: saline with Tween-80
[8] = dose: 12.5 mg/kg/injection, schedule: Q04DX003 (ip), vehicle: saline with Tween-80
[9] = dose: 37.5 mg/kg/injection, schedule: Q04DX003 (ip), vehicle: saline with Tween-80
[10] = dose: 75.0 mg/kg/injection, schedule: Q04DX003 (ip), vehicle: saline with Tween-80
[11] = dose: 300.0 mg/kg/injection, schedule: Q04DX003 (ip), vehicle: saline with Tween-80

COc1ccccc1/C=C/C(=O)c1ccccc(=O)c1O
T/C [1]: 98 % of control | T/C (dose: 18.75 mg/kg/injection, schedule: Q04DX003 (ip), vehicle: Klucel (hydroxypropylcellulose) (HPC)): 89 % of control | T/C [2]: 98 % of control | T/C [3]: 110 % of control | T/C (dose: 150.0 mg/kg/injection, schedule: Q04DX003 (ip), vehicle: Klucel (hydroxypropylcellulose) (HPC)): 103 % of control

Cc1ccc2nc(-c3ccc4nc(-c5ccc(N=Nc6ccc(-c7nc8ccc(-c9nc%10ccc(C)c(S(=O)(=O)O)c%10s9)cc8s7)cc6)cc5)sc4c3)sc2c1S(=O)(=O)O
T/C (dose: 75.0 mg/kg/injection, schedule: Q04DX003 (ip), vehicle: suspension in saline): 92 % of control | T/C (dose: 150.0 mg/kg/injection, schedule: Q04DX003 (ip), vehicle: suspension in saline): 96 % of control

COc1cc2c[n+](C)c3c(c2cc1OC)Cc1cc2c(cc1-3)OCO2
T/C (dose: 18.75 mg/kg/injection, schedule: Q04DX003 (ip), vehicle: saline with Tween-80): 108 % of control | T/C [4]: 201 % of control

O=[N+]([O-])c1ccc([I+]c2ccccc2)cc1
T/C [1]: 121 % of control | T/C (dose: 16.2 mg/kg/injection, schedule: Q04DX003 (ip), vehicle: Klucel (hydroxypropylcellulose) (HPC)): 115 % of control | T/C (dose: 27.0 mg/kg/injection, schedule: Q04DX003 (ip), vehicle: Klucel (hydroxypropylcellulose) (HPC)): 114 % of control and 101 % of control | T/C [2]: 108 % of control | T/C (dose: 45.0 mg/kg/injection, schedule: Q04DX003 (ip), vehicle: Klucel (hydroxypropylcellulose) (HPC)): 105 % of control and 120 % of control | T/C [3]: 93 % of control

CC(=O)NC(CCc1ccc(Cl)c(Cl)c1)c1cccc(O)c(=O)c1 (stereo not given)
T/C (dose: 86.4 mg/kg/injection, schedule: Q04DX003 (ip), vehicle: Klucel (hydroxypropylcellulose) (HPC)): 98 % of control | T/C (dose: 240.0 mg/kg/injection, schedule: Q04DX003 (ip), vehicle: Klucel (hydroxypropylcellulose) (HPC)): 109 % of control

O=c1[nH]cc(F)c(=O)[nH]1
T/C (dose: 5.0 mg/kg/injection, schedule: Q01DX005 (ip), vehicle: saline): 123 % of control | T/C (dose: 5.0 mg/kg/injection, schedule: Q01DX015 (ip), vehicle: saline): 115 % of control | T/C (dose: 10.0 mg/kg/injection, schedule: Q01DX015 (ip), vehicle: saline): 224 % of control | T/C (dose: 10.0 mg/kg/injection, schedule: Q04DX003 (ip), vehicle: saline): 163 % of control | T/C (dose: 15.0 mg/kg/injection, schedule: Q04DX003 (ip), vehicle: saline): 108 % of control | T/C (dose: 20.0 mg/kg/injection, schedule: Q01DX005 (ip), vehicle: saline): 166 % of control | T/C (dose: 20.0 mg/kg/injection, schedule: Q01DX015 (ip), vehicle: saline): 211 % of control | T/C (dose: 20.0 mg/kg/injection, schedule: Q04DX003 (ip), vehicle: saline): 191 % of control | T/C (dose: 30.0 mg/kg/injection, schedule: Q04DX003 (ip), vehicle: saline): 179 % of control | T/C (dose: 40.0 mg/kg/injection, schedule: Q01DX005 (ip), vehicle: saline): 160 % of control | T/C (dose: 60.0 mg/kg/injection, schedule: Q04DX003 (ip), vehicle: saline): 185 % of control

NC(Cc1ccc(N(CCCl)Cc2ccccc2)cc1)C(=O)O (stereo not given)
T/C [5]: 107 % of control | T/C [6]: 124 % of control | T/C [7]: 158 % of control and 163 % of control

CCOc1ccc(C(C)c2cc3c(cc2OC)OCO3)cc1 (stereo not given)
T/C (dose: 150.0 mg/kg/injection, schedule: Q04DX003 (ip), vehicle: distilled water + Tween-80): 177 % of control | T/C (dose: 300.0 mg/kg/injection, schedule: Q04DX003 (ip), vehicle: distilled water + Tween-80): 161 % of control and 163 % of control | T/C (dose: 600.0 mg/kg/injection, schedule: Q04DX003 (ip), vehicle: distilled water + Tween-80): 226 % of control and 252 % of control

Cc1ccc(C(=Nc2ccccc2)N=P(c2ccccc2)(c2ccccc2)c2ccccc2)cc1
T/C [8]: 106 % of control | T/C [5]: 115 % of control | T/C [6]: 119 % of control | T/C (dose: 100.0 mg/kg/injection, schedule: Q04DX003 (ip), vehicle: saline with Tween-80): 104 % of control

O=NNc1ccc2cccnc2n1
T/C (dose: 9.38 mg/kg/injection, schedule: Q04DX003 (ip), vehicle: water): 99 % of control | T/C (dose: 18.75 mg/kg/injection, schedule: Q04DX003 (ip), vehicle: water): 120 % of control | T/C (dose: 37.5 mg/kg/injection, schedule: Q04DX003 (ip), vehicle: water): 157 % of control | T/C (dose: 75.0 mg/kg/injection, schedule: Q04DX003 (ip), vehicle: water): 192 % of control | T/C (dose: 150.0 mg/kg/injection, schedule: Q04DX003 (ip), vehicle: water): 214 % of control

c1cn[nH]c1
T/C (dose: 75.0 mg/kg/injection, schedule: Q04DX003 (ip), vehicle: saline): 109 % of control | T/C (dose: 150.0 mg/kg/injection, schedule: Q04DX003 (ip), vehicle: saline): 107 % of control

COc1cccc2c1C(CO)N1C(C#N)C3CC(C(=O)O)C(C1C2)N3C (stereo not given)
T/C (dose: 12.5 mg/kg/injection, schedule: Q04DX003 (ip), vehicle: saline): 175 % of control | T/C (dose: 12.5 mg/kg/injection, schedule: Q04DX003 (ip), vehicle: suspension in saline): 164 % of control | T/C (dose: 25.0 mg/kg/injection, schedule: Q04DX003 (ip), vehicle: saline): 157 % of control

C=CCNC(=O)c1ccccc1SC(C)=O
T/C [9]: 100 % of control | T/C [10]: 95 % of control | T/C [11]: 93 % of control

COc1cc(C(=O)N/N=C/c2cccc([N+](=O)[O-])c2)cc(OC)c1OC
T/C [9]: 98 % of control | T/C [10]: 101 % of control and 96 % of control | T/C [4]: 104 % of control and 105 % of control | T/C [11]: 98 % of control | T/C (dose: 600.0 mg/kg/injection, schedule: Q04DX003 (ip), vehicle: saline with Tween-80): 105 % of control and 98 % of control | T/C (dose: 1200.0 mg/kg/injection, schedule: Q04DX003 (ip), vehicle: saline with Tween-80): 114 % of control

Cc1cc(Nc2ccc3c(c2)OCO3)c2cc3c(cc2n1)OCO3
T/C [3]: 106 % of control | T/C (dose: 600.0 mg/kg/injection, schedule: Q04DX003 (ip), vehicle: Klucel (hydroxypropylcellulose) (HPC)): 152 % of control and 158 % of control

Cc1ccccc1N=C(c1ccccc1)C1C(=O)c2ccccc2C1=O
T/C (dose: 75.0 mg/kg/injection, schedule: Q04DX003 (ip), vehicle: DMSO): 101 % of control | T/C (dose: 75.0 mg/kg/injection, schedule: Q04DX003 (ip), vehicle: other): 105 % of control | T/C (dose: 150.0 mg/kg/injection, schedule: Q04DX003 (ip), vehicle: DMSO): 109 % of control | T/C (dose: 150.0 mg/kg/injection, schedule: Q04DX003 (ip), vehicle: other): 93 % of control | T/C (dose: 300.0 mg/kg/injection, schedule: Q04DX003 (ip), vehicle: DMSO): 101 % of control | T/C (dose: 300.0 mg/kg/injection, schedule: Q04DX003 (ip), vehicle: other): 103 % of control | T/C (dose: 600.0 mg/kg/injection, schedule: Q04DX003 (ip), vehicle: DMSO): 103 % of control | T/C (dose: 600.0 mg/kg/injection, schedule: Q04DX003 (ip), vehicle: other): 103 % of control | T/C (dose: 1200.0 mg/kg/injection, schedule: Q04DX003 (ip), vehicle: DMSO): 99 % of control | T/C (dose: 1200.0 mg/kg/injection, schedule: Q04DX003 (ip), vehicle: other): 102 % of control

O=C1C=CC(=CC=C2C=CN(CCCCCCCCCCCO)C=C2)C=C1
T/C (dose: 6.25 mg/kg/injection, schedule: Q04DX003 (ip), vehicle: saline with Tween-80): 107 % of control | T/C [8]: 100 % of control | T/C (dose: 36.0 mg/kg/injection, schedule: Q04DX003 (ip), vehicle: saline with Tween-80): 109 % of control and 110 % of control | T/C [6]: 117 % of control | T/C (dose: 60.0 mg/kg/injection, schedule: Q04DX003 (ip), vehicle: saline with Tween-80): 116 % of control and 120 % of control | T/C [7]: 159 % of control
